{
  "source": "patent US20210283091A1",
  "about": "“DECREASING IMMUNE ACTIVITY THROUGH MODULATION OF POSTCELLULAR SIGNALING FACTORS” (FLAGSHIP PIONEERING INNOVATIONS V, INC., priority 2018, published 2021)",
  "key": {"[1]": {"system": "HT1080 fibrosarcoma cells", "assay": "Viability of HT1080 fibrosarcoma cells treated with ferroptosis inducer, with or without ferroptosis inhibitor or siRNA", "assay_type": "cell-based", "conditions": "various doses, 24 hours treatment"}, "NFKB [2]": {"system": "NFKB", "assay": "NFKB reporter activity in THP1-Dual monocytes co-cultured with treated HT1080 cells", "assay_type": "cell-based, human", "conditions": "HT1080 cells treated 24 hours, then co-culture with THP1-Dual cells 24 hours", "protocol": "HT1080 fibrosarcoma cells were treated with either control (DMSO) or various doses of Erastin, piperazine erastin (PE), or imidazole ketoerastin (IKE) for 24 hours prior to co-culture with THP1-Dual cells for an additional 24 hours. Erastin was purchased from Selleckchem (Houston, Tex.) and dissolved in DMSO. Subsequently, the THP1 supernatants were assessed for nuclear factor kappa-light-chain-enhancer of activated B cells (NFKB) or interferon regulatory factor (IRF) reporter activity.\nHT1080 cells were acquired from ATCC and THP1-Dual cells were acquired from InvivoGen (San Diego, Calif.). […] 24 hours later, 30 μl of supernatant was mixed with either 200 μl QuantiBlue (InvivoGen, San Diego, Calif.) (for NFKB reporter activity) or 50 μl QuantiLuc (for IRF reporter activity) and absorbance or luminescence was recorded on a Molecular Devices plate reader.\nHT1080 fibrosarcoma cells were treated with various doses of Erastin (e.g. 0.8, 0.16, 0.31, 0.63, 1.25, 2.5, 5, 10 or 20 μM) alone or in combination with a ferroptosis inhibitor (1 μM Ferrostatin-1, 1 μM Liproxstatin-1, 100 μM Trolox, 25 μM β-Mercaptoethanol or 100 μM Deferoxamine) for 24 hours prior to co-culture with THP1-Dual cells for an additional 24 hours. […] Subsequently, the THP1 supernatant was assessed for NFKB activity. […]"}, "NFKB [3]": {"system": "NFKB", "assay": "NFKB reporter activity in THP1-Dual monocytes co-cultured with treated A20 cells", "assay_type": "cell-based, human", "conditions": "for NFKB signaling in THP1 monocytes: A20 cells treated 24 hours, then co-culture with THP1-Dual cells 24 hours", "protocol": "A20 B-cell leukemia cells were treated with either control (DMSO) or various doses of RSL3, for 24 hours prior to co-culture with THP1-Dual cells for an additional 24 hours. RSL3 was purchased from Selleckchem (Houston, Tex.) and dissolved in DMSO. Subsequently, the THP1 supernatants were assessed for NFKB or IRF reporter activity.\nA20 cells were acquired from ATCC and THP1-Dual cells acquired from InvivoGen (San Diego, Calif.). Both cell types were cultured in 96-well plates for the duration of the assay. 50,000 A20 cells were plated 24 hours prior to dosing with RSL3, with a final DMSO concentration of 0.5%. 24 hours post-treatment, THP1-Dual cells (25,000 cells/well) were added to the A20 cells. 24 hours later, 30 μl of supernatant was mixed with either 200 μl QuantiBlue (InvivoGen, San Diego, Calif.) or 50 μl QuantiLuc and absorbance or luminescence was recorded on a Molecular Devices plate reader.\nA20 lymphoma cells were treated with various doses (e.g. 0.002, 0.005, 0.014, 0.041, 0.123, 0.370, 1.111, 3.333 and 10 μM) of a GPX4 inhibitor (RSL3, ML162 or ML210) in the presence or absence of 1 μM Ferrostatin-1 for 24 hours. ML162 was purchased from Cayman Chemical Company Inc and resuspended in DMSO. ML210 was purchased from Sigma-Aldrich and resuspended in DMSO. A20 lymphoma cells were also treated with DMSO as a negative control. After treatment with DMSO or a GPX4 inhibitor for 24 hours, the A20 lymphoma cells were co-cultured with THP1-Dual cells for an additional 24 hours. Subsequently, the THP1 supernatant was assessed for NFKB reporter activity. A20 cells were acquired from ATCC and THP1-Dual cells were acquired from InvivoGen (San Diego, Calif.). Both cell types were cultured in 96-well plates for the duration of the assay."}, "[4]": {"system": "A20 B-cell leukemia cells", "assay": "Viability of A20 cells treated with GPX4 inhibitor, with or without Ferrostatin-1", "assay_type": "cell-based", "conditions": "for viability of A20 cells: various doses, 24 hours treatment"}, "NFKB [5]": {"system": "NFKB", "assay": "NFKB reporter activity in THP1-Dual monocytes co-cultured with treated Caki-1 cells", "assay_type": "cell-based, human", "protocol": "Caki-1 renal cell carcinoma cells were treated with either control (DMSO) or various doses of Erastin, for 24 hours prior to co-culture with THP1-Dual cells for an additional 24 hours. Erastin was purchased from Selleckchem (Houston, Tex.) and dissolved in DMSO. Subsequently, the THP1 supernatants were assessed for NFKB or IRF reporter activity. Caki-1 cells were acquired from ATCC and THP1-Dual cells acquired from InvivoGen (San Diego, Calif.). Both cell types were cultured in 96-well plates for the duration of the assay. 7.500 Caki-1 cells were plated 24 hours prior to dosing with Erastin, with a final DMSO concentration of 0.5%. 24 hours post-treatment, THP1-Dual cells (25,000 cells/well) were added to the Caki-1 cells. 24 hours later, 30 μl of supernatant was mixed with either 200 μl QuantiBlue (InvivoGen) or 50 μl QuantiLuc and absorbance or luminescence was recorded on a Molecular Devices plate reader. Caki-1 renal cell carcinoma cells were treated with either control (DMSO) or various doses of RSL3, for 24 hours prior to co-culture with THP1-Dual cells for an additional 24 hours. RSL3 was purchased from Selleckchem and dissolved in DMSO. Subsequently, the THP1 supernatants were assessed for NFKB or IRF reporter activity. Caki-1 cells were acquired from ATCC and THP1-Dual cells acquired from InvivoGen (San Diego, Calif.). Both cell types were cultured in 96-well plates for the duration of the assay. 7.500 Caki-1 cells were plated 24 hours prior to dosing with […], with a final DMSO concentration of 0.5%. 24 hours post-treatment, THP1-Dual cells (25,000 cells/well) were added to the Caki-1 cells. 24 hours later, 30 μl of supernatant was mixed with either 200 μl QuantiBlue (InvivoGen, San Diego, Calif.) or 50 μl QuantiFuc and absorbance or luminescence was recorded on a Molecular Devices plate reader. […] Subsequently, the THP1 supernatant was assessed for NFKB reporter activity. […]"}, "C57/B6 mice": {"system": "C57/B6 mice", "assay": "Dextran sodium sulfate colitis in mice", "assay_type": "in vivo", "conditions": "10 mg/kg, i.p., 3-4% dextran sodium sulfate 5 days, compared to vehicle", "protocol": "C57/B6 mice are treated with vehicle or Ferrostatin (10 mg/kg, i.p) before the induction of colitis by administration of 3-4% dextran sodium sulfate in the drinking water for 5 days. An anti-inflammatory effect of ferrostatin compared to vehicle is confirmed by […], decreased diarrhea, and decreased weight loss. In addition, inhibition of neutrophil recruitment (innate immune response) by ferrostatin in confirmed by decreased myeloperoxidase activity in the colon (compared to vehicle)."}, "[6]": {"system": "Caki-1 renal cell carcinoma cells", "assay": "Viability of Caki-1 renal cell carcinoma cells treated with ferroptosis inducer, with or without Ferrostatin-1", "assay_type": "cell-based"}},
  "data": [
    {"smiles": "CC(C)Oc1ccc(C(=O)Cn2ccnc2)cc1-n1c(CN2CCN(C(=O)COc3ccc(Cl)cc3)CC2)nc2ccccc2c1=O", "note": "[IKE, imidazole ketoerastin]", "values": [
      {"measurement": "viability of HT1080 cells", "setting": "[1]", "result": "negatively affected the viability"},
      {"measurement": "NFKB signaling in THP1 monocytes", "setting": "NFKB [2]", "result": "elicited NFKB signaling"}
    ]},
    {"smiles": "CCOC(=O)c1ccc(NC2CCCCC2)c(N)c1", "note": "[Ferrostatin-1]", "values": [
      {"measurement": "effect on NFKB activity in THP1 cells increased by GPX4 inhibitor-treated A20 lymphoma cells", "setting": "NFKB [3]; 1 μM Ferrostatin-1", "result": "attenuated"},
      {"measurement": "effect on viability of A20 lymphoma cells decreased by GPX4 inhibitor (RSL3, ML162 or ML210)", "setting": "[4]; 1 μM Ferrostatin-1, 24 hours", "result": "attenuated"},
      {"measurement": "effect on NFKB activity in THP1 cells increased by RSL3- or ML162-treated Caki-1 cells", "setting": "NFKB [5]; 1 μM Ferrostatin", "result": "attenuated"},
      {"measurement": "colon length", "setting": "C57/B6 mice", "result": "decreased"},
      {"measurement": "diarrhea", "setting": "C57/B6 mice", "result": "decreased"},
      {"measurement": "myeloperoxidase activity in the colon", "setting": "C57/B6 mice", "result": "decreased"},
      {"measurement": "weight loss", "setting": "C57/B6 mice", "result": "decreased"},
      {"measurement": "effect on viability of Caki-1 renal carcinoma cells decreased by GPX4 inhibitor (RSL3 or ML162)", "setting": "[6]; 1 μM Ferrostatin, 24 hours", "result": "attenuated"}
    ]},
    {"smiles": "Cc1onc(C(=O)N2CCN(C(c3ccc(Cl)cc3)c3ccc(Cl)cc3)CC2)c1[N+](=O)[O-]", "note": "[ML210]", "values": [
      {"measurement": "NFKB signaling in THP1 monocytes", "setting": "NFKB [3]", "result": "increased NFKB activity in THP1 cells in a dose dependent manner"},
      {"measurement": "viability of A20 cells", "setting": "[4]", "result": "decreased viability of the cells in a dose dependent manner"}
    ]},
    {"smiles": "CC(C)Oc1ccc(CN2CCNCC2)cc1-n1c(CN2CCN(C(=O)COc3ccc(Cl)cc3)CC2)nc2ccccc2c1=O", "note": "[PE, piperazine erastin]", "values": [
      {"measurement": "viability of HT1080 cells", "setting": "[1]", "result": "negatively affected the viability"},
      {"measurement": "NFKB signaling in THP1 monocytes", "setting": "NFKB [2]", "result": "elicited NFKB signaling"}
    ]},
    {"smiles": "COc1ccc(N(C(=O)CCl)C(C(=O)NCCc2ccccc2)c2cccs2)cc1Cl", "note": "(stereo not drawn) [ML162]", "values": [
      {"measurement": "NFKB signaling in THP1 monocytes", "setting": "NFKB [3]", "result": "increased NFKB activity in THP1 cells in a dose dependent manner"},
      {"measurement": "viability of A20 cells", "setting": "[4]", "result": "decreased viability of the cells in a dose dependent manner"},
      {"measurement": "NFKB signaling in THP1 monocytes", "setting": "NFKB [5]; Caki-1 cells treated 24 hours, then co-culture with THP1-Dual cells 24 hours", "result": "increased NFKB activity in THP1 cells in a dose dependent manner"},
      {"measurement": "viability of Caki-1 cells", "setting": "[6]; various doses, 24 hours treatment", "result": "decreased viability of the cells in a dose dependent manner"}
    ]}
  ]
}
